Measurements reported in patent publication US8367349B2, “Methods for identifying modulators of LRRK2” (Medical Research Council, priority 2010, dated 2013).

Columns and labels:
GFP-LRRK2 = molecular target: T1, GFP-LRRK2 (Homo sapiens, UniProt Q5S007); test: Kinase inhibitor panel: Ser910/Ser935 phosphorylation in HEK293 cells stably expressing GFP-LRRK2; type: cell-based; conditions: HEK293 GFP-LRRK2, 90 minutes, inhibitors at the higher limits of concentrations routinely employed
T1 construct: immunoprecipitates of stably expressed full length GFP-LRRK2; expressed in transfected cells
Experimental: FIG. 16. HEK-293 stably expressing GFP-LRRK2 were treated with DMSO, or the following inhibitors dissolved in DMSO, at the indicated concentration for 90 minutes. […] Total LRRK2 was assessed by GFP immunoblot. The immunoblots shown are representative of 2 independent experiments. Cell transfections were performed by the polyethylenimine method. Where inhibitors are utilized, they were dissolved in DMSO and used at the indicated concentrations with an equivalent volume of DMSO used as a control. The final concentration of DMSO in the culture medium was never more than 0.1% (v/v). Inhibitors were added to the culture medium for the indicated times before lysis. Per 15 cm dish, HEK 293 cells were lysed with 1.0 ml and 3T3 cells were lysed with 0.6 ml of lysis buffer supplemented with the indicated detergent and clarified by centrifugation at 16,000×g at 4° C. for 10 minutes. After induction and inhibitor treatment, T-REx-GFP expressing cells were lysed at room temperature with SDS lysis buffer after washing with PBS. […] Protein concentrations were determined using the Bradford method with BSA as the standard. […] Immune complexes were washed twice with lysis buffer supplemented with 0.3 M NaCl and twice with Buffer A. Precipitates were either used as a source of kinase or immediately analyzed by immunoblot. […] DIG 14-3-3 was detected with HRP labelled anti-DIG Fab fragments (Roche).

LRRK2[A2016T+G2019S] = molecular target: T2, LRRK2[A2016T+G2019S] (Homo sapiens, UniProt Q5S007, A2016T/G2019S); test: Ser910/Ser935 phosphorylation and 14-3-3 binding of drug resistant LRRK2[A2016T+G2019S] in HEK-293 cells; type: cell-based; conditions: HEK-293 over-expressing LRRK2[A2016T+G2019S], 90 minutes
T2 construct: expressed in transfected cells; host or cells: HEK-293 cells, transient transfection
Experimental: (§1) FIG. 5. […] Cells were lysed in lysis buffer supplemented with 0.5% NP40 and […] and subjected to anti-FLAG immunoprecipitation. Immunoprecipitates were resolved on 4-12% Novex SDS-polyacrylamide gels and subjected to immunoblot with FLAG (total LRRK2), anti-pS910, anti-pS935 as well as a 14-3-3 overlay assay.
(§2) Cell transfections were performed by the polyethylenimine method. Where inhibitors are utilized, they were dissolved in DMSO and used at the indicated concentrations with an equivalent volume of DMSO used as a control. The final concentration of DMSO in the culture medium was never more than 0.1% (v/v). Inhibitors were added to the culture medium for the indicated times before lysis. Per 15 cm dish, HEK 293 cells were lysed with 1.0 ml and 3T3 cells were lysed with 0.6 ml of lysis buffer supplemented with the indicated detergent and clarified by centrifugation at 16,000×g at 4° C. for 10 minutes. After induction and inhibitor treatment, T-REx-GFP expressing cells were lysed at room temperature with SDS lysis buffer after washing with PBS. SDS lysates were boiled and sonicated to reduce viscosity. When not used immediately, all lysate supernatants were snap frozen in liquid nitrogen and stored at −80° C. until use. Protein concentrations were determined using the Bradford method with BSA as the standard.
(§3) Immunological procedures. […]

wild type FLAG-LRRK2 = molecular target: T3, wild type FLAG-LRRK2 (Homo sapiens, UniProt Q5S007); test: Ser910/Ser935 dephosphorylation of wild type FLAG-LRRK2 in 293 cells; type: cell-based
T3 construct: overexpressed full length human FLAG-LRRK2 expressed in HEK-293 cells; expressed in transfected cells; host or cells: HEK-293 cells, transient transfection
Experimental: as §1, §2, §3

endogenous LRRK2 [1] = molecular target: T4, endogenous LRRK2 (Mus musculus, UniProt Q5S006); test: Ser910/Ser935 phosphorylation and 14-3-3 binding of endogenous LRRK2 in Swiss 3T3 cells; type: cell-based; conditions: 90 minutes
T4 construct: endogenous in cells; host or cells: Swiss 3T3 cells
Experimental: as §2
Immunological procedures. Cell lysates (10-30 μg) were resolved by electrophoresis on SDS polyacrylamide gels or Novex 4-12% gradient gels, and electroblotted to nitrocellulose membranes. Membranes were blocked with 5% skimmed milk (w/v) in 50 mM Tris/HCl, pH 7.5, 0.15 M NaCl and 0.1% (v/v) Tween (TBST Buffer). […]

LRRK2[Ala2016Thr] = LRRK2[Ala2016Thr] (Homo sapiens, UniProt Q5S007, A2016T); conditions: relative to normally sensitive LRRK2; cited from earlier work
[2] = test system: LRRK2[A2016T] or LRRK2[A2016T+G2019S]; test: Cytoplasmic localisation of drug resistant GFP-LRRK2[A2016T] or [A2016T+G2019S] in T-REx cells; type: cell-based, human
Experimental: (§4) FIG. 14. Disruption of 14-3-3 binding induces accumulation of LRRK2 within cytoplasmic aggregates. A.) Stable-inducible T-REx cells lines harboring the indicated forms of LRRK2 were induced for 24 hours with 0.1 μg/ml doxycycline to induce expression of GFP-LRRK2. The indicated cell lines were treated in the absence or presence of the indicated dose of H-1152 for 90 min prior to fixation. Representative fluorescent micrographs of GFP-LRRK2 localisation are shown. Cytoplasmic aggregates of GFP-LRRK2 are indicated with white arrowheads. B.) Fluorescent micrographs representative of cultures of the indicated forms GFP-LRRK2 are shown. Cytoplasmic aggregates of GFP-LRRK2 are indicated with white arrowheads. Localisation analyses were performed in duplicate, and similar results observed in two independent experiments.
(§5) Fluorescence Microscopy. HEK-293 Flp-in T-REx were purchased from Invitrogen and stable cells harbouring GFP tagged wild type and mutant forms of LRRK2 were generated using standard protocols. Cells were plated in 4-well glass bottom, CC2 coated chamber slides (Nunc). One day after plating, cells were induced with 0.1 μg/ml doxycycline and 24 hr later, cells were fixed in 4% paraformaldehyde buffered in phosphate buffered saline (purchased from USB, # 19943). […]

[3] = test system: GFP-LRRK2 or GFP-LRRK2[G2019S]; test: Cytoplasmic localisation of GFP-LRRK2 or GFP-LRRK2[G2019S] in T-REx cells (fluorescence microscopy); type: cell-based, human; conditions: drug sensitive GFP-LRRK2 or GFP-LRRK2[G2019S], 90 min before fixation
Experimental: as §4, §5

LRRK2[G2019S] = molecular target: T5, LRRK2[G2019S] (Homo sapiens, UniProt Q5S007, G2019S); test: Ser910/Ser935 phosphorylation and 14-3-3 binding of Flag-LRRK2[G2019S] in HEK-293 cells; type: cell-based
T5 construct: expressed in transfected cells; host or cells: HEK-293 cells, transient transfection
Experimental: as §1, §2, §3

endogenous LRRK2 [4] = molecular target: T4, endogenous LRRK2; test: Kinase activity of endogenous LRRK2 immunoprecipitated from inhibitor-treated Swiss 3T3 cells after wash-out; type: biochemical; conditions: 30 μM H1152 or 10 μM sunitinib for 2 h, inhibitor washed off, 20 μM Nictide
Experimental: Immunoprecipitates were washed with lysis buffer containing 0.5 M NaCl to remove inhibitor and were then incubated in kinase buffer containing 20 μM Nictide with the presence or absence of magnesium-ATP for 30 min. Following incubation, immunoprecipitates were centrifuged at 8000 rpm for 0.5 min and the supernatant spotted on to P81 paper for measurement of LRRK2 kinase activity. Sample buffer was added to the pelleted beads and LRRK2 S910 and S935 phosphorylation was quantified following immunoblot analysis. A membrane was also subjected to autoradiography to assess LRRK2 autophosphorylation.
LRRK2 Immunoprecipitation Kinase assays. Peptide Kinase Assays were set up in a total volume of 50 μl with immunoprecipitated LRRK2 as a source of kinase, in 50 mM Tris pH 7.5, 0.1 mM EGTA, 10 mM MgCl2 and 0.1 mM [γ-^32P]ATP (˜500-1000 cpm/pmol) in the presence of 30 μM Nictide peptide substrate. Reactions were terminated by applying 30 μl of the reaction mixture on to P81 phosphocellulose paper and immersion in 50 mM phosphoric acid. After extensive washing, reaction products were quantitated by Cerenkov counting. One half of the remaining reaction was subjected to immunoblot analysis using the Odyssey LICOR system and specific activity is represented as cpm/LICOR independent density values.

LRRK2 = LRRK2 (Homo sapiens, UniProt Q5S007); conditions: wild type LRRK2, in vitro; read-out: IC50 for inhibition of LRRK2; cited from earlier work
Chain of LRRK2 (Q5S007 whole entry): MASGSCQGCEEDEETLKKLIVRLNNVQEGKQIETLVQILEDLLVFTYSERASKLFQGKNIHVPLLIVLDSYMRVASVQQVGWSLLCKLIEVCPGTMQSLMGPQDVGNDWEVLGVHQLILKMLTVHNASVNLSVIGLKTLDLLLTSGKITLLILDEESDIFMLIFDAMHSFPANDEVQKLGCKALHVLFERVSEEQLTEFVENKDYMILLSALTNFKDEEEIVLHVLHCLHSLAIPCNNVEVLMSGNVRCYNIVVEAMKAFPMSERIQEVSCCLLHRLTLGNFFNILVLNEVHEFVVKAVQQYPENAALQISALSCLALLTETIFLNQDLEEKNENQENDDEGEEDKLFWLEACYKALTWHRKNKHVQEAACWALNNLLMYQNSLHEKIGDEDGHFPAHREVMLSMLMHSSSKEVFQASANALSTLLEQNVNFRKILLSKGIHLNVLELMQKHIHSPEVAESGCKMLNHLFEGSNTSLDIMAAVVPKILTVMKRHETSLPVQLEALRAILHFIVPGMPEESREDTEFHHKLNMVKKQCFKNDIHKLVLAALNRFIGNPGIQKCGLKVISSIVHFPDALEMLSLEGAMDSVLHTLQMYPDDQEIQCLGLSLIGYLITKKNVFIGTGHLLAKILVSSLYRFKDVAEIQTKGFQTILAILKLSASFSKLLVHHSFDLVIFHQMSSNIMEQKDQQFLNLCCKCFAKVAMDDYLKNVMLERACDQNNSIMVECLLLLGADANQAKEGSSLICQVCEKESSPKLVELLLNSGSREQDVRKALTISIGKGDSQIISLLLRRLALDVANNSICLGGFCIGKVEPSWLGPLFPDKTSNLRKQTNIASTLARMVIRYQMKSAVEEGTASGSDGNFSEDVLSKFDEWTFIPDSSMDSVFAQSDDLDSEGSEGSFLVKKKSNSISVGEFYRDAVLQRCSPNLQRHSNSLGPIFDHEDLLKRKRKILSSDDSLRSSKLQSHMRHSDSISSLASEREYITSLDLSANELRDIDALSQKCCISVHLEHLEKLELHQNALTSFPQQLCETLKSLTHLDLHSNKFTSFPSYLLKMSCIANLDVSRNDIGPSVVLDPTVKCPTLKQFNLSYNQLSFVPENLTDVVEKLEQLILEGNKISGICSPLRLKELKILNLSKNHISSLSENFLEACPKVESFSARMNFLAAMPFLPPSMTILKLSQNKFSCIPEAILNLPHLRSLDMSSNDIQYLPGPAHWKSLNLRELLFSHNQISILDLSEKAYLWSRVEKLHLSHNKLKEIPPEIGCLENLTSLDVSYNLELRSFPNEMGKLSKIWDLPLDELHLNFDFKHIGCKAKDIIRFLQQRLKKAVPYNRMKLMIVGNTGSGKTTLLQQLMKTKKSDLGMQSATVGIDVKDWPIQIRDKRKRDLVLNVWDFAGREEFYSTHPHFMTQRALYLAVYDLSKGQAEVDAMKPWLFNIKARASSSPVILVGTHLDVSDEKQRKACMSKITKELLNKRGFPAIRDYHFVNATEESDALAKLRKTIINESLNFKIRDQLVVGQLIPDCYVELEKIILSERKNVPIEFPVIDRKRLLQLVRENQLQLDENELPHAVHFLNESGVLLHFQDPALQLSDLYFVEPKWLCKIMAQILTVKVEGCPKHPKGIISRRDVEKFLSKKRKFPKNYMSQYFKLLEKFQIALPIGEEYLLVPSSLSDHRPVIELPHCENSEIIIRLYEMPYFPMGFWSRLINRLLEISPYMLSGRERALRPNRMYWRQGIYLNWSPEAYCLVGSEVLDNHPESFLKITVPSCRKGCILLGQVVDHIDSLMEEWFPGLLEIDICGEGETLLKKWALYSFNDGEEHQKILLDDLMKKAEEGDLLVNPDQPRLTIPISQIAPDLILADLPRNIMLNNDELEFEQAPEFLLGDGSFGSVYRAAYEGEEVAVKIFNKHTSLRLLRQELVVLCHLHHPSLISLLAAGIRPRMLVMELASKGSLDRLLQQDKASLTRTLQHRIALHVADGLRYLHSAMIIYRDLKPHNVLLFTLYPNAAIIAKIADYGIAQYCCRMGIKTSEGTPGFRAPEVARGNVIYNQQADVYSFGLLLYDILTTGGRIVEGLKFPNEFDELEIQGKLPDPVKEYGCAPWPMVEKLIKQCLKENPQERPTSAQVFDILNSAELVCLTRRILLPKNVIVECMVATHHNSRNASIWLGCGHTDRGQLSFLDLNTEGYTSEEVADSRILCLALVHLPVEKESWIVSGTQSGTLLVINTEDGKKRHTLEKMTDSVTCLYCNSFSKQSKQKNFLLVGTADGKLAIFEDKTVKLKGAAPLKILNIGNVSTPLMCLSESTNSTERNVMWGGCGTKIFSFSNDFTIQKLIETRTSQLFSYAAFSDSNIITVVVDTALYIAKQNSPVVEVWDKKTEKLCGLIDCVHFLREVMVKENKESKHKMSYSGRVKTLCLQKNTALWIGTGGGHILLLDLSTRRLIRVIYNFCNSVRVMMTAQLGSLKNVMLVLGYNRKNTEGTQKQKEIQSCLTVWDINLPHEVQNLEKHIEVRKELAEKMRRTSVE

T4 sequence (Q5S006 whole entry): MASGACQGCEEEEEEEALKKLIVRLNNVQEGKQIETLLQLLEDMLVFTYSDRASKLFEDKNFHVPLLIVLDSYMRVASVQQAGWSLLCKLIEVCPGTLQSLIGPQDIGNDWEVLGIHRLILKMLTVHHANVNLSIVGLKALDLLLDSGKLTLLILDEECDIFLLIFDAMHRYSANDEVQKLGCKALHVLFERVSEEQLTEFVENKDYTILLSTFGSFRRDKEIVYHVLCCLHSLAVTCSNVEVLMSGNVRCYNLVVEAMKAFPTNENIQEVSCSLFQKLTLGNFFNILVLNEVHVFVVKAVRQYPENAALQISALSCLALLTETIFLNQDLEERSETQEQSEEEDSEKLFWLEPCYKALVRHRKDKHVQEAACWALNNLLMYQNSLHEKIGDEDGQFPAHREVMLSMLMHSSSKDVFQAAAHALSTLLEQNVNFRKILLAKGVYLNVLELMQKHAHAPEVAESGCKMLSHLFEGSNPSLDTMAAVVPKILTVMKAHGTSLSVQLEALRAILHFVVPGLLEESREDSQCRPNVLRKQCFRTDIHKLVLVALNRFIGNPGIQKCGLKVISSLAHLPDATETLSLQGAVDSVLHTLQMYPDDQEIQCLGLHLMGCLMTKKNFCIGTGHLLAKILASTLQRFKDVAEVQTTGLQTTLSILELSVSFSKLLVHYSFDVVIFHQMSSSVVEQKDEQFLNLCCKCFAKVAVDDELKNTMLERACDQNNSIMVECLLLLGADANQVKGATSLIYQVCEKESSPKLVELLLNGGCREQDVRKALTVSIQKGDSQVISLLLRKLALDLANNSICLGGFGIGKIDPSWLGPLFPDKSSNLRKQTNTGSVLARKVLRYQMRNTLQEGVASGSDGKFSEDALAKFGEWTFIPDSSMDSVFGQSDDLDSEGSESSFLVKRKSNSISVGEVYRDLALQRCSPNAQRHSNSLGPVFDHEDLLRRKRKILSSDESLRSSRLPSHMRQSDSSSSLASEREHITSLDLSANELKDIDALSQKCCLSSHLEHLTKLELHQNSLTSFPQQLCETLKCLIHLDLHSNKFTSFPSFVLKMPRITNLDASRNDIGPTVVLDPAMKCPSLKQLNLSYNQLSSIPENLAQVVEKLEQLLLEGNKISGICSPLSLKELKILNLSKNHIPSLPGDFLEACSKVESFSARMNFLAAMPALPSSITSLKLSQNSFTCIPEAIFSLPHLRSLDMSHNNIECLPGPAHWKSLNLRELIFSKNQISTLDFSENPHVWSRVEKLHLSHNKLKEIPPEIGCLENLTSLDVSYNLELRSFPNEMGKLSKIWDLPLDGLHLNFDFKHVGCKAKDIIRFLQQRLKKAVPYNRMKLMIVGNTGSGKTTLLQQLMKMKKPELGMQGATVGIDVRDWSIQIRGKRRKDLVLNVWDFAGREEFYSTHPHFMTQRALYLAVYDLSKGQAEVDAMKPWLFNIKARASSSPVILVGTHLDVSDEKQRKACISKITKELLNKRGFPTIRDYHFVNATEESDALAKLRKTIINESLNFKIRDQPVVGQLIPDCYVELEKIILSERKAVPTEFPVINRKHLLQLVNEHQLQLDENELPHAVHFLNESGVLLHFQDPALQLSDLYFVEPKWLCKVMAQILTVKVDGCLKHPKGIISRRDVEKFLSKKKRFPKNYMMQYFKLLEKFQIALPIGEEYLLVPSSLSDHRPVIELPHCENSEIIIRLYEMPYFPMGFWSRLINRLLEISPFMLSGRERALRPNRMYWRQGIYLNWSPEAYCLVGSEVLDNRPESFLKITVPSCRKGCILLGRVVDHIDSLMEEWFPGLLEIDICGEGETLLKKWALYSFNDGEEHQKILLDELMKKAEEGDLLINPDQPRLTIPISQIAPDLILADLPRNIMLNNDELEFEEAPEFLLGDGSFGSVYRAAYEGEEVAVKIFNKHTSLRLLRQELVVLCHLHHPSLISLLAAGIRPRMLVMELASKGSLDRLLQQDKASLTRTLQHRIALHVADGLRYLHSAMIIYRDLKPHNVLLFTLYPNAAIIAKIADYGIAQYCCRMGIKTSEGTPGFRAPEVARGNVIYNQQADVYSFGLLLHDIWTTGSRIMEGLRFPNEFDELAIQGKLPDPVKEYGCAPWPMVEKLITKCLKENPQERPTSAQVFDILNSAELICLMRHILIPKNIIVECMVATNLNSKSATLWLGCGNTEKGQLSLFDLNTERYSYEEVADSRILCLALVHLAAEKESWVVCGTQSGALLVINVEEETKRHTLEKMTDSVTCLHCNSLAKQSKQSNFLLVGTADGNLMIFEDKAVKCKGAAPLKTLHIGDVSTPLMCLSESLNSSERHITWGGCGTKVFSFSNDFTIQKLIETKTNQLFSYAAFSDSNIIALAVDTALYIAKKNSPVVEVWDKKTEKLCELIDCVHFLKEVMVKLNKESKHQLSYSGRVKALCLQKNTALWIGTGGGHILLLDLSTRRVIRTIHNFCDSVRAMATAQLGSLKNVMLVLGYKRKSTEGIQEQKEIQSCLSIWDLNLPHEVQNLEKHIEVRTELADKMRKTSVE
T5 sequence (Q5S007 whole entry G2019S): as the sequence (Q5S007 whole entry) above, with G2019S counted along it
T2 sequence (Q5S007 whole entry A2016T/G2019S): as the sequence (Q5S007 whole entry) above, with A2016T, G2019S counted along it
Chain of LRRK2[Ala2016Thr] (Q5S007 whole entry A2016T): as the sequence (Q5S007 whole entry) above, with A2016T counted along it

Row | Compound | dephosphorylation of Ser910/Ser935 (GFP-LRRK2) | inhibition of Ser910 or Ser935 phosphorylation or 14-3-3 binding of drug resistant mutant (LRRK2[A2016T+G2019S]) | potency at inducing dephosphorylation of wild type FLAG-LRRK2 compared with endogenous LRRK2 in Swiss 3T3 cells (wild type FLAG-LRRK2) | concentration inducing almost complete dephosphorylation of Ser910 and Ser935 and loss of 14-3-3 binding (endogenous LRRK2 [1]) [µM] | dephosphorylation of endogenous LRRK2 at Ser910 and Ser935 with concomitant reduction in 14-3-3 binding (endogenous LRRK2 [1]; increasing amounts of inhibitor) | fold less sensitive: drug resistant LRRK2[Ala2016Thr] mutant (LRRK2[Ala2016Thr]) [fold] | accumulation of LRRK2 within cytoplasmic pools [2] | accumulation of LRRK2 within cytoplasmic pools [3] | potency in inducing dephosphorylation and impairing 14-3-3 binding: LRRK2[G2019S] compared with wild type LRRK2 (LRRK2[G2019S]; HEK-293 cells, Flag-LRRK2 forms) | dephosphorylation of LRRK2[G2019S] at Ser910 and Ser935 and disruption of 14-3-3 binding (LRRK2[G2019S]; HEK-293 over-expressing LRRK2[G2019S], 90 minutes) | endogenous LRRK2 kinase activity after treatment of cells (endogenous LRRK2 [4]) | IC50 (LRRK2) [µM]
1 | N#CC(c1ccnc(NCCc2cccnc2)n1)c1nc2ccccc2s1 (stereo not drawn) [AS601245] | did not induce dephosphorylation |  |  |  |  |  |  |  |  |  |  | 
2 | Cc1cncc2cccc(S(=O)(=O)N3CCCNC[C@@H]3C)c12 [H-1152] |  | neither H-1152 nor sunitinib significantly inhibited | similar | 10 to 30 | dose dependent dephosphorylation | 32 | no cytoplasmic pool accumulation | marked accumulation of LRRK2 within cytoplasmic pools | more potent | dose-dependent dephosphorylation | did not affect | 0.15
